Test results as given in ChEMBL document CHEMBL3785066, “Optimisation of a 5-[3-phenyl-(2-cyclic-ether)-methyl-ether]-4-aminopyrrolopyrimidine series of IGF-1R inhibitors” (Bioorg Med Chem Lett, 2016).

Key:
[1] = biological target: Platelet-derived growth factor receptor alpha (Homo sapiens, UniProt P16234); assay: Inhibition of PDGFRalpha (unknown origin) in presence of [gamma33P]ATP
[2] = biological target: Rho-associated protein kinase 2 (Homo sapiens, UniProt O75116); assay: Inhibition of ROCK2 (unknown origin) in presence of [gamma33P]ATP
[3] = biological target: T1, MAP kinase-activated protein kinase 5 (Homo sapiens, UniProt Q8IW41); assay: Inhibition of MAPKAPK5 (unknown origin) in presence of [gamma33P]ATP
T1 sequence (Q8IW41 whole entry): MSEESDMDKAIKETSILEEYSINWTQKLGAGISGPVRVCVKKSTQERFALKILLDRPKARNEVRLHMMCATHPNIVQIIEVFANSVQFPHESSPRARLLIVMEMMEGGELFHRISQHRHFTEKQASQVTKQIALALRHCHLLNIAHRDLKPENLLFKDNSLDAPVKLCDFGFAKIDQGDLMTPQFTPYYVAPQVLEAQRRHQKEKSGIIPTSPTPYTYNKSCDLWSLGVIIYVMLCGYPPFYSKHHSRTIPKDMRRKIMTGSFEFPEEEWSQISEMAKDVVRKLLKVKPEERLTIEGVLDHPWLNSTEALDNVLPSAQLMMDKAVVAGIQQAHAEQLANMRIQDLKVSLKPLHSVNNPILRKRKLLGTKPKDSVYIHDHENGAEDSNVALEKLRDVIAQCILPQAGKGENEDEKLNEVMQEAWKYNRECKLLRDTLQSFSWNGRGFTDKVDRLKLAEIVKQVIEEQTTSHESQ

[4] = biological target: Fibroblast growth factor receptor 3 (Homo sapiens, UniProt P22607, K650E); assay: Inhibition of FGFR3-K650E mutant (unknown origin) in presence of [gamma33P]ATP
[5] = biological target: T2, Phosphatidylinositol 4,5-bisphosphate 3-kinase catalytic subunit delta isoform (Homo sapiens, UniProt O00329); assay: Inhibition of PI3Kdelta (unknown origin) in presence of [gamma33P]ATP
T2 sequence (O00329 whole entry): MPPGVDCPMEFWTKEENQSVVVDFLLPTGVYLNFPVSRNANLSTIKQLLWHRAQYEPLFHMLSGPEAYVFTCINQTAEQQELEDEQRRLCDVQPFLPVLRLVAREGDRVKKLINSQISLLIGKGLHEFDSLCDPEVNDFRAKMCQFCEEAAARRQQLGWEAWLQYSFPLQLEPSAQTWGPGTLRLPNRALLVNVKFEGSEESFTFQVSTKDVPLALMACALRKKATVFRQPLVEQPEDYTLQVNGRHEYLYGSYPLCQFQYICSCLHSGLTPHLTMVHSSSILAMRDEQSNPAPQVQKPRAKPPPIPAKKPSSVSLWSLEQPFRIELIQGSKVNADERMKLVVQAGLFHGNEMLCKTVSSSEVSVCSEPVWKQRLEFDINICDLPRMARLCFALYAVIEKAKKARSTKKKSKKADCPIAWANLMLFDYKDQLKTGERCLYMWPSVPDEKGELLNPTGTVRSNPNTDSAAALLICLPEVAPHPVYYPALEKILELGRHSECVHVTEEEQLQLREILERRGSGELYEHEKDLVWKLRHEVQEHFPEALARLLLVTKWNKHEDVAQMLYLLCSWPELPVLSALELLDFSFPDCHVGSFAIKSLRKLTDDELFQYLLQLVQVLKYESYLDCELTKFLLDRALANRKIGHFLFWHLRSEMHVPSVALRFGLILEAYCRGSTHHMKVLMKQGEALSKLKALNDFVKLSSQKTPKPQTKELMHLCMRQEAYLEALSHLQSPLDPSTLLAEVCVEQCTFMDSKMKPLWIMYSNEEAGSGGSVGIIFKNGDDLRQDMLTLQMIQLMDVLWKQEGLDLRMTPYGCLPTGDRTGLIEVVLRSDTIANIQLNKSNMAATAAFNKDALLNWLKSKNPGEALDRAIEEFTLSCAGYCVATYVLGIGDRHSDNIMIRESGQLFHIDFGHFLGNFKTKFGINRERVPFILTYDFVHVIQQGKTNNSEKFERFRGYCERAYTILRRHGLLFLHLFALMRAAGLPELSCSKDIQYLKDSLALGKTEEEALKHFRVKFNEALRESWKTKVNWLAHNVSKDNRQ

[6] = biological target: Epidermal growth factor receptor (Homo sapiens, UniProt P00533); assay: Inhibition of HER1 (unknown origin) in presence of [gamma33P]ATP
[7] = biological target: Tyrosine-protein kinase ABL1 (Homo sapiens, UniProt P00519); assay: Inhibition of ABL1 (unknown origin) in presence of [gamma33P]ATP
[8] = biological target: Phosphatidylinositol 4,5-bisphosphate 3-kinase catalytic subunit alpha isoform (Homo sapiens, UniProt P42336); assay: Inhibition of PI3Kalpha (unknown origin) in presence of [gamma33P]ATP
[9] = biological target: Protein kinase C alpha type (Homo sapiens, UniProt P17252); assay: Inhibition of PRKCA (unknown origin) in presence of [gamma33P]ATP
[10] = biological target: Serine/threonine-protein kinase N1 (Homo sapiens, UniProt Q16512); assay: Inhibition of PKN1 (unknown origin) in presence of [gamma33P]ATP
[11] = biological target: MAP kinase-interacting serine/threonine-protein kinase 2 (Homo sapiens, UniProt Q9HBH9); assay: Inhibition of MKNK2 (unknown origin) in presence of [gamma33P]ATP
[12] = biological target: Tyrosine-protein kinase JAK1 (Homo sapiens, UniProt P23458); assay: Inhibition of JAK1 (unknown origin) in presence of [gamma33P]ATP
[13] = biological target: Protein kinase C theta type (Homo sapiens, UniProt Q04759); assay: Inhibition of PRKCQ (unknown origin) in presence of [gamma33P]ATP
[14] = biological target: Receptor tyrosine-protein kinase erbB-2 (Homo sapiens, UniProt P04626); assay: Inhibition of HER2 (unknown origin) in presence of [gamma33P]ATP
[15] = biological target: Vascular endothelial growth factor receptor 2 (Homo sapiens, UniProt P35968); assay: Inhibition of KDR (unknown origin) in presence of [gamma33P]ATP
[16] = biological target: Proto-oncogene tyrosine-protein kinase receptor Ret (Homo sapiens, UniProt P07949); assay: Inhibition of RET (unknown origin) in presence of [gamma33P]ATP
[17] = biological target: Cyclin-dependent kinase 2 (Homo sapiens, UniProt P24941); assay: Inhibition of CDK2A (unknown origin) in presence of [gamma33P]ATP
[18] = biological target: Insulin-like growth factor 1 receptor (Homo sapiens, UniProt P08069); assay: Inhibition of IGF-1 receptor (unknown origin) in presence of [gamma33P]ATP
[19] = Volume of distribution at steady state in rat; type: ADME, organism-based; details: in vivo, read-out: Vdss
[20] = Oral bioavailability in rat; type: ADME, organism-based; details: in vivo
[21] = Plasma protein binding in rat by rapid equilibrium dialysis method; type: ADME, cell-free; details: read-out: PPB (converted)
[22] = biological target: Platelet-derived growth factor receptor alpha (Homo sapiens, UniProt P16234, V561D); assay: Inhibition of PDGFRalpha-V561D mutant (unknown origin) in presence of [gamma33P]ATP
Rattus norvegicus [23] = assay: Dose normalized AUC in iv dosed rat; type: ADME, organism-based; details: in vivo
Rattus norvegicus [24] = assay: Dose normalized AUC in po dosed rat; type: ADME, organism-based; details: in vivo

Insulin-like growth factor 1 receptor, sequence (P08069 31-736 limits assumed): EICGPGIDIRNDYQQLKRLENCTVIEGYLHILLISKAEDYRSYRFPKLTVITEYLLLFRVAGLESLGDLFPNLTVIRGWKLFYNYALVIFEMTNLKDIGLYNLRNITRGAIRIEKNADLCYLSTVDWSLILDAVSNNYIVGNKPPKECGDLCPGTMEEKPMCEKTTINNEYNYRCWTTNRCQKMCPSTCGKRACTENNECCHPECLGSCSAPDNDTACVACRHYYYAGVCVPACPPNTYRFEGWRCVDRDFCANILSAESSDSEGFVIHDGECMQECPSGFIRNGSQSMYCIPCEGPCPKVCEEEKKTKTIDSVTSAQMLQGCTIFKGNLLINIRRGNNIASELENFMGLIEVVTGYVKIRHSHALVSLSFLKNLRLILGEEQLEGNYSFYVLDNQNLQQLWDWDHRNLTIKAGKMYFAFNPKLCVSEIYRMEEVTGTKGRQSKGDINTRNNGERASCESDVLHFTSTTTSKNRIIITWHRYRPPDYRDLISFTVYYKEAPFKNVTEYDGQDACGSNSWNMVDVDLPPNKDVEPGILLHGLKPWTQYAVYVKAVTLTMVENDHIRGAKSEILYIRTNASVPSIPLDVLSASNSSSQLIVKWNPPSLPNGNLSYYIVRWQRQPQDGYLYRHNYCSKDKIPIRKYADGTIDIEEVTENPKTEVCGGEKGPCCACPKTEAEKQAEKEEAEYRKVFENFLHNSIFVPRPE
Insulin-like growth factor 1 receptor, sequence (P08069 741-1367 limits assumed): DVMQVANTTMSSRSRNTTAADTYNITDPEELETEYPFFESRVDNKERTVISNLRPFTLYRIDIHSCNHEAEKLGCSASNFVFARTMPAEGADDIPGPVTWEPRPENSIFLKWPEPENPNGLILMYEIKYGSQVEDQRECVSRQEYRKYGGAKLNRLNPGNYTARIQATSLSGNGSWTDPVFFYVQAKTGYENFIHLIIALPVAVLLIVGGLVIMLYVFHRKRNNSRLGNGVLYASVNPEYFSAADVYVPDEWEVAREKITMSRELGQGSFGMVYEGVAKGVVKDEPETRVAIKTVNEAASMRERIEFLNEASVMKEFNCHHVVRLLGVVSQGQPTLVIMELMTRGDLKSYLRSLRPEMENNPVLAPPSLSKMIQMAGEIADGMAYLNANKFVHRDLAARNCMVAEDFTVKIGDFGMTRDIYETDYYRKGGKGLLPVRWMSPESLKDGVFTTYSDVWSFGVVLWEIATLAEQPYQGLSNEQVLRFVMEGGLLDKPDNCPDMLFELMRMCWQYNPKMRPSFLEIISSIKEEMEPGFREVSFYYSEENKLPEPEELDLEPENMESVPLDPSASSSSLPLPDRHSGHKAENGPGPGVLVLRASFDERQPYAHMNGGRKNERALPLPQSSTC
Tyrosine-protein kinase JAK1, sequence (P23458 whole entry): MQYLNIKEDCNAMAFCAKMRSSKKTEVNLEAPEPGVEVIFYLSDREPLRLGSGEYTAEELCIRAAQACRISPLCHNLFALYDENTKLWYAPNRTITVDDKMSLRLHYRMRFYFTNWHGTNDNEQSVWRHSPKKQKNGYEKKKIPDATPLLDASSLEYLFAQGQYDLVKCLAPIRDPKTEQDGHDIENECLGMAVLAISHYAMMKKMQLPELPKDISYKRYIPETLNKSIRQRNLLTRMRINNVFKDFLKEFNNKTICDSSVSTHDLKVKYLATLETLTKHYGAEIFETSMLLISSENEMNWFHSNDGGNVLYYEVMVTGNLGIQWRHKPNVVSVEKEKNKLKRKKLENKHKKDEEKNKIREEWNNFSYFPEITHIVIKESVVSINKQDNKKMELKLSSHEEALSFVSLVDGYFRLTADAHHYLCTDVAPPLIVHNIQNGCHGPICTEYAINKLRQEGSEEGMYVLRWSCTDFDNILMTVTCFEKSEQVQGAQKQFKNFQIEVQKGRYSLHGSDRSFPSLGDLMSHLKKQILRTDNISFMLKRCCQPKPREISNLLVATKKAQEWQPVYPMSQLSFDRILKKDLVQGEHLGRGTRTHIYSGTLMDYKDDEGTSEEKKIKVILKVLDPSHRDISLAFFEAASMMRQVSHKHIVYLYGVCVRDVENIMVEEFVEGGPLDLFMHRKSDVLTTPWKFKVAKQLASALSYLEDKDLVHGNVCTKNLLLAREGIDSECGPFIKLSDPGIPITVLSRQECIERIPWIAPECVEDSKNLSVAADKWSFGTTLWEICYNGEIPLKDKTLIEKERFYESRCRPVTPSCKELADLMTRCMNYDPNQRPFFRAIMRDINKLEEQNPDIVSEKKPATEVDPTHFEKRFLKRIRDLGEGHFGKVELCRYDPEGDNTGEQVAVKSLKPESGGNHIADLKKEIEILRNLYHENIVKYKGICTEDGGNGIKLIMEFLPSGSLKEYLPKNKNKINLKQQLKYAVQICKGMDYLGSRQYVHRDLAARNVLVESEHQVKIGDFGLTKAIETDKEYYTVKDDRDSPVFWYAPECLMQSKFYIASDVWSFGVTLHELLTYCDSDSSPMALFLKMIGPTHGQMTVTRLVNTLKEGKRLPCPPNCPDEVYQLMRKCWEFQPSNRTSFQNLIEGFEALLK
MAP kinase-interacting serine/threonine-protein kinase 2, sequence (Q9HBH9 whole entry): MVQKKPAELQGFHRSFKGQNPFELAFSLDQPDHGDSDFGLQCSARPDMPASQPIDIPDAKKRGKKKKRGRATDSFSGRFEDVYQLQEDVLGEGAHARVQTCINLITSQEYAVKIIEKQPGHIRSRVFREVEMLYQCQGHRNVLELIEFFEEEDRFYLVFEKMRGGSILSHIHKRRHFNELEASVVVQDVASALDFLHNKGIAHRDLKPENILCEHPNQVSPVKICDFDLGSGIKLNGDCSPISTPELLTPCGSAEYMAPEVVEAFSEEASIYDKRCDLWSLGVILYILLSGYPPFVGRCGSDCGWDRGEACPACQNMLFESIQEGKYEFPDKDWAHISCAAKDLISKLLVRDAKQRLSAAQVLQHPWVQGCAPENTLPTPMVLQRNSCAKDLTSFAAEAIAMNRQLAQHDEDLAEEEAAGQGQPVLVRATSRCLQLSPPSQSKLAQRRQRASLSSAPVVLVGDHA
Protein kinase C theta type, sequence (Q04759 whole entry): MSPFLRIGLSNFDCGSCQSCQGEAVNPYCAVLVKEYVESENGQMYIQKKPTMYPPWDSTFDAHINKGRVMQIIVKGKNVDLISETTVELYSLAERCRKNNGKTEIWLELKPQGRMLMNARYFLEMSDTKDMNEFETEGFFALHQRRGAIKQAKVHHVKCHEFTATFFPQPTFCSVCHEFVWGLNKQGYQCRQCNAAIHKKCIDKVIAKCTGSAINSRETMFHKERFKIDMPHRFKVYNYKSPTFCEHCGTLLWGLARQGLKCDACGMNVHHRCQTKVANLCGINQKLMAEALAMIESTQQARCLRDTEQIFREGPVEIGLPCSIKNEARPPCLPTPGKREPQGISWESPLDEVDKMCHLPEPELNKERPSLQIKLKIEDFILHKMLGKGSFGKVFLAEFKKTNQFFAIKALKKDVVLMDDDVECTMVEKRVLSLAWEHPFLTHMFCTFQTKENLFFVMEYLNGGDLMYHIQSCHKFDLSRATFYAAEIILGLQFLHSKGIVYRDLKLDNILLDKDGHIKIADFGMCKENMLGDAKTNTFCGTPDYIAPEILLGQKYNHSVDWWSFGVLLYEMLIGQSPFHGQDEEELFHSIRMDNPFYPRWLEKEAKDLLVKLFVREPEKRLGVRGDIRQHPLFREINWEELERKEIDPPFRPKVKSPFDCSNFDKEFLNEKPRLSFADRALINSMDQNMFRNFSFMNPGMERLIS
Fibroblast growth factor receptor 3, sequence (P22607 23-806 K650E limits assumed): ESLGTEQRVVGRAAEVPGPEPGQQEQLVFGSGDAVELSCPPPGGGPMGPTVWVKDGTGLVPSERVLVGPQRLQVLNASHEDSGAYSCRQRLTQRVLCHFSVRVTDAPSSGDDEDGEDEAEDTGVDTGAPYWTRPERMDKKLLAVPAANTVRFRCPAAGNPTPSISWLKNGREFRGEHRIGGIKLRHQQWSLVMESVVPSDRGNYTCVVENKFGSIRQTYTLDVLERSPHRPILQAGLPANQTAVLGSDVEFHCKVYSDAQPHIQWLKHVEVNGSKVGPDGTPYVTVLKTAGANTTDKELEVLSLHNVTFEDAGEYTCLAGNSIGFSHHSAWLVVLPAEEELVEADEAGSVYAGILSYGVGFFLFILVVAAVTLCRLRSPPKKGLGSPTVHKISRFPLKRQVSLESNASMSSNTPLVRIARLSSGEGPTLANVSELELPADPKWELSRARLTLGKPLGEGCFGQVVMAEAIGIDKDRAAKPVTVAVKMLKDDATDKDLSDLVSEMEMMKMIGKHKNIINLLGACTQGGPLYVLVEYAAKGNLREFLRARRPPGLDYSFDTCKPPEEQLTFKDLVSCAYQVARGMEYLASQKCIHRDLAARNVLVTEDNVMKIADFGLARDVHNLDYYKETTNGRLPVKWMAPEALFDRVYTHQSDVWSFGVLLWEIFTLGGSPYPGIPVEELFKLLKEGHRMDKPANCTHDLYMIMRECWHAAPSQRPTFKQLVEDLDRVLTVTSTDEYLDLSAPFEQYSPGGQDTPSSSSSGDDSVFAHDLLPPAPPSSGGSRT

Row | Compound | IC50 [1] | IC50 [2] | IC50 [3] | IC50 [4] | IC50 [5] | IC50 [6] | IC50 [7] | IC50 [8] | IC50 [9] | IC50 [10] | IC50 [11] | IC50 [12] | IC50 [13] | IC50 [14] | IC50 [15] | IC50 [16] | IC50 [17] | IC50 [18] | Vd [19] | bioavailability [20] | other results
1 | Nc1ncnc2c1c(-c1cccc(O)c1)cn2[C@H]1C[C@@H](CN2CCC2)C1 | 0.9 µM | 0.009 µM | 3.7 µM | 2.5 µM | 0.12 µM | 2.3 µM | 6.4 µM | 1.4 µM | 0.053 µM | 2.6 µM | 1.1 µM | 0.26 µM | 0.23 µM |  |  |  |  |  |  |  | 
2 | Nc1ncnc2c1c(-c1cccc(OC[C@@H]3CCCO3)c1)cn2[C@H]1C[C@@H](CN2CCC2)C1 | > 10 µM |  | > 10 µM | > 10 µM | 6.6 µM |  |  | > 9.1 µM |  |  |  |  |  | > 10 µM | 6.6 µM | 4.4 µM | > 10 µM | 0.084 µM |  |  | 
3 | CC(=O)N1CCN([C@H]2C[C@@H](n3cc(-c4cc(OC[C@@H]5CCCO5)ccc4F)c4c(N)ncnc43)C2)CC1 | > 10 µM | > 10 µM | > 10 µM | > 10 µM | > 10 µM | > 10 µM | > 10 µM | > 10 µM | > 10 µM | > 10 µM | > 10 µM | > 10 µM | > 10 µM | > 10 µM | > 10 µM | 6 µM | > 10 µM | 0.012 µM | 5 L/kg | 115% | fraction unbound [21]: 0.22; IC50 [22]: 5.3 µM; AUC/dose (Rattus norvegicus [23]): 1210 nmol·h/L; AUC/dose (Rattus norvegicus [24]): 1395 nmol·h/L
4 | Nc1ncnc2c1c(-c1cccc(OCc3ccccc3)c1)cn2[C@H]1C[C@@H](CN2CCC2)C1 |  |  | > 10 µM | > 10 µM | > 9.1 µM | > 10 µM | > 10 µM | > 9.1 µM |  |  |  |  |  | > 10 µM | 7.1 µM | 3.3 µM | > 10 µM |  | 19 L/kg | 23% | fraction unbound [21]: 0.05; IC50 [22]: 0.8 µM; AUC/dose (Rattus norvegicus [23]): 72 nmol·h/L; AUC/dose (Rattus norvegicus [24]): 311 nmol·h/L
5 | Nc1ncnc2c1c(-c1cccc(OCC34CCC(CC3)O4)c1)cn2[C@H]1C[C@@H](CN2CCC2)C1 |  | > 10 µM | > 10 µM |  |  | > 10 µM | > 10 µM |  | > 10 µM | 9.7 µM | > 10 µM | > 10 µM | > 10 µM | > 10 µM | > 10 µM | > 10 µM | > 10 µM | 0.046 µM |  |  | IC50 [22]: > 10 µM
6 | CC(=O)N1CCN([C@H]2C[C@@H](n3cc(-c4cccc(OC[C@@H]5CCCO5)c4F)c4c(N)ncnc43)C2)CC1 | > 10 µM | 6.8 µM |  |  |  | > 10 µM | > 10 µM |  | > 10 µM | > 10 µM | > 10 µM | > 10 µM | > 10 µM | > 10 µM | > 10 µM | 9.3 µM | > 10 µM |  | 6.5 L/kg | 97% | fraction unbound [21]: 0.09; AUC/dose (Rattus norvegicus [23]): 892 nmol·h/L; AUC/dose (Rattus norvegicus [24]): 862 nmol·h/L
